In patent US20230256108A1, “A DRUG CONJUGATE AND APPLICATIONS THEREOF” (GENEQUANTUM HEALTHCARE (SUZHOU) CO., LTD., priority 2019, published 2023) one finds IC50 data, which are given here for four compounds.

The term IC50 denotes the concentration at which inhibition is half-maximal. A low value points to inhibition by little substance.

The subject of assay [1] is BT-474. Kind of assay: Cytotoxicity, HER2 high-expressing cancer cells. The format is cell-based.
In assay [2] the test system is HCC1954. The assay is described as follows: Cytotoxicity, HER2 high-expressing cancer cells. The format is cell-based, human.
The subject of assay [3] is NCI-N87. Kind of assay: Cytotoxicity, HER2 high-expressing cancer cells. The format is cell-based, human.
Assay [4] deals with SK-BR-3. Kind of assay: Cytotoxicity, HER2 high-expressing cancer cells. The format is cell-based, human.
Assay [5] concerns MDA-MB-468. The assay is described as follows: Cytotoxicity, HER2 low-expressing or HER2-negative cells. Conditions: Homo sapiens. The format is cell-based. As for the experimental part:
(§1) Cytotoxicity experiments were performed using human breast cancer cells MDA-MB-231, MDA-MB-468, which are HER2 low-expressing or HER2-negative.

Assay [6] relates to MDA-MB-231. Described as above. The format is cell-based. Particulars: Homo sapiens. As for the experimental part:
as §1

SMILES strings stand for the structures. Like-named read-outs stand apart in the source and are kept apart here. Non-standard residues stand in square brackets, D forms with d. Residues, ends and D or L forms follow the SMILES beside them. *: point of attachment. Dolaproine = CO[C@@H]([C@@H]1CCCN1)[C@@H](C)C(=O)O; Hexanoyl(6-maleimido) = O=C1C=CC(=O)N1CCCCCC(=O)*; Dil = CC[C@H](C)[C@H](NC)[C@@H](CC(=O)O)OC; NMeV = CN[C@H](C(=O)O)C(C)C

As for `COc1cc2cc(c1Cl)N(C)C(=O)C[C@H](OC(=O)[C@H](C)N(C)C(=O)CCS)[C@]1(C)O[C@H]1[C@H](C)[C@@H]1C[C@@](O)(NC(=O)O1)[C@H](OC)/C=C/C=C(\C)C2` [DM1], the IC50 in assay [1] is 6.24 nM; in assay [2], 2.67 nM; in assay [3], 6.97 nM; in assay [4], 1.92 nM.

Regarding `CC[C@H](C)[C@@H]([C@@H](CC(=O)N1CCC[C@H]1[C@H](OC)[C@@H](C)C(=O)N[C@@H](Cc1ccccc1)C(=O)O)OC)N(C)C(=O)[C@H](NC(=O)[C@H](C(C)C)N(C)C(=O)CCCCCN1C(=O)CC(SCC(NC(=O)CCOCCOCCOCCOCCNC(=O)CNC(=O)CNC(=O)CN)C(N)=O)C1=O)C(C)C` (stereo partly drawn) [IM102 (ring closed)], the IC50 in assay [1] (Homo sapiens, BT-474) was determined as 267 nM; in assay [2] (Homo sapiens, HCC1954) it was 160 nM; in assay [3] (Homo sapiens, NCI-N87) it was 690 nM; in assay [4] (Homo sapiens, SK-BR-3), 383 nM; in assay [5], 1080 nM; in assay [6], 1710 nM.

Take `CC[C@H](C)[C@@H]([C@@H](CC(=O)N1CCC[C@H]1[C@H](OC)[C@@H](C)C(=O)N[C@@H](Cc1ccccc1)C(=O)O)OC)N(C)C(=O)[C@@H](NC(=O)[C@@H](NC)C(C)C)C(C)C` [MMAF, monomethyl auristatin F] (H-[NMeV]V[Dil][Dolaproine]F-OH): the IC50 in assay [1] was 44.7 nM; in assay [2], 39.6 nM; in assay [3] it was 41.4 nM; in assay [4] it was 54.3 nM.

In the case of `CC[C@H](C)[C@@H]([C@@H](CC(=O)N1CCC[C@H]1[C@H](OC)[C@@H](C)C(=O)N[C@@H](Cc1ccccc1)C(=O)O)OC)N(C)C(=O)[C@@H](NC(=O)[C@H](C(C)C)N(C)C(=O)CCCCCN1C(=O)C=CC1=O)C(C)C` [mc-MMAF] ({Hexanoyl(6-maleimido)}-[NMeV]V[Dil][Dolaproine]F-OH), the IC50 is 56.1 nM in assay [1], 116 nM in assay [2], 208 nM in assay [3] and 98.6 nM in assay [4].
